In ChEMBL document CHEMBL1149412, “Novel human lipoxygenase inhibitors discovered using virtual screening with homology models” (J Med Chem, 2006) one finds logP data, which are given here for three molecules.

The nature of this data set: Partition coefficient of the compound, log P. The note with it: octanol/water. The class given is physicochemical.
For `Cc1cccc(C(=N)NOC(=O)c2ccc(C)cc2Cl)c1`, the logP – broadly, the decadic logarithm of the partition coefficient of the neutral form, usually between octanol and water – was 5.42.
As for `Nc1sc2c(c1C(=O)Nc1cccc(Cl)c1)CCCC2`, the figure is 4.64; as for `CCc1cc(-c2n[nH]cc2Oc2ccccc2)c(O)cc1O`, 3.93.
